The values that follow come from paper PMC4298241 (ChemMedChem, 2014).

One series concerns T. brucei (BSF). The series is described as follows: Alamar Blue viability test, T. brucei bloodstream form. The format is cell-based. As to conditions: Trypanosoma brucei. Background: Resazurin is reduced to fluorescent resorufin, in cell work by metabolically active cells.
The test system of series [1] is KB 3-1 cervix cancer cell line. As to conditions: read-out: cytotoxicity IC50; cited from earlier work.

Structures are written as SMILES. Read-outs that look alike come from different tables or passages of the source.

The term IC50 denotes the midpoint of a concentration-inhibition curve. Turning to `CCCCCCC1CCCC(C2CCC([C@H]3CC[C@H]([C@H](O)CCCCCCCCCCCCC4=C[C@H](C)OC4=O)O3)O2)O1` (stereo partly drawn) [Compound 6, chamuvarinin], the results for the EC50 with T. brucei (BSF) (read-out: T.brucei(BSF) EC50) and in the series with T. brucei (BSF) (read-out: pEC50 (converted)) were 1400 ± 100 nM and 1380 nM, respectively. The IC50 in series [1] is 0.8 nM.
